Experimental data reported in patent publication US8530487B1 (priority 2009, dated 2013).

What follows are compounds tested against human TRPA1 (Homo sapiens, UniProt O75762) (assay: cell-based). Conditions: not given.
Chain of human TRPA1 (O75762 whole entry): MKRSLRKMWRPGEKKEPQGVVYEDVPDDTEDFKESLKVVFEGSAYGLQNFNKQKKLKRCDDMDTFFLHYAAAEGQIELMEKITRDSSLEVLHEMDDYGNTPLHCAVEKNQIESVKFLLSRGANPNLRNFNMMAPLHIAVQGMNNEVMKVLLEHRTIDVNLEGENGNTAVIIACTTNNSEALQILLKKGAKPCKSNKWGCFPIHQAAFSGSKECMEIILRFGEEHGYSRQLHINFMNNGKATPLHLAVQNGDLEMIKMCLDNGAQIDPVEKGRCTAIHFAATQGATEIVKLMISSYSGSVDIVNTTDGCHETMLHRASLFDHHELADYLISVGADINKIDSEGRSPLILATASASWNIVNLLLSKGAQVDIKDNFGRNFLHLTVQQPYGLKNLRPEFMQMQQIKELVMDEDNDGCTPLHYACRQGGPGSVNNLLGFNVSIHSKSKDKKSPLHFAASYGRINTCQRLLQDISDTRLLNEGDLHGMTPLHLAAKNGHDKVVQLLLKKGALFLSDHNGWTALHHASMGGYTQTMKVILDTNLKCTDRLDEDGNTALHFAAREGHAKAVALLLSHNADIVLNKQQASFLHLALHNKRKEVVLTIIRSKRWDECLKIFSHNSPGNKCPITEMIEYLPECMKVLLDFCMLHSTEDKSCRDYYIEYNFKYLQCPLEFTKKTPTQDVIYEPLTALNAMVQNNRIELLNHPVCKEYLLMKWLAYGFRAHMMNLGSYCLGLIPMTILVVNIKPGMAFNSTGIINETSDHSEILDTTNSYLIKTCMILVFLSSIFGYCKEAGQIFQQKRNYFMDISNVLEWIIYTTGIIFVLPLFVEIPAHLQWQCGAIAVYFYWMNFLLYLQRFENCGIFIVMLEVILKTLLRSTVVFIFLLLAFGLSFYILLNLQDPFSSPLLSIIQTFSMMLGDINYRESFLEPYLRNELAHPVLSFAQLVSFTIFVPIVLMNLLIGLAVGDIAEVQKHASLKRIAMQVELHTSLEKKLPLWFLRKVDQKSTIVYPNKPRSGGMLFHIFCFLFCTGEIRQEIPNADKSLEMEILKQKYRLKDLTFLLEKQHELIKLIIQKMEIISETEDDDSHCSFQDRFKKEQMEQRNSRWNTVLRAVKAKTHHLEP

Compound	IC50 [nM]
O=C1C2=C(NC(=S)NC2c2cccnc2)c2ccccc21 (stereo not shown) [Compound 33]	500 to 1000
N#Cc1ccc(C2NC(=S)NC3=C2C(=O)c2ccccc23)cc1 (stereo not shown) [Compound 35]	500 to 1000
COc1cccc(C2NC(=O)NC3=C2C(=O)c2ccccc23)c1 (stereo not shown) [Compound 621]	500 to 1000

Same assay, conditions: read-out: Activity (IC50)

Compound	IC50 [nM]
O=C1NC2=C(C(=O)c3ccccc32)C(c2cccc3c2OCO3)N1 (stereo not shown) [Compound 439]	> 1000
CCOc1cccc(C2NC(=O)N(Cc3ccccn3)C3=C2C(=O)c2ccccc23)c1 (stereo not shown) [Compound 611]	> 1000
C=CCOc1cccc(C2NC(=O)N(Cc3cccnc3)C3=C2C(=O)c2ccccc23)c1 (stereo not shown) [Compound 634]	< 100
C=CCOc1cccc(C2NC(=O)NC3=C2C(=O)c2ccccc23)c1Cl (stereo not shown) [Compound 640]	< 100
CN1C(=O)NC(c2cccc(OCC3CC3)c2)C2=C1c1ccccc1C2=O (stereo not shown) [Compound 641]	100 to 500
N#CN=C1NC2=C(C(=O)c3c(Cl)cccc32)C(c2cccc(OCC3CC3)c2)N1 (stereo not shown) [Compound 954]	> 1000
O=C1NC2=C(C(=O)c3ccccc32)C(c2cccc(OCC(F)(F)F)c2)N1 (stereo not shown) [Compound 413]	100 to 500
C=CCOc1cccc(C2NC(=O)N(C)C3=C2C(=O)c2ccccc23)c1 (stereo not shown) [Compound 629]	< 100
C=CCOc1cccc(C2NC(=O)NC3=C2C(=O)c2ccccc23)c1C(F)(F)F (stereo not shown) [Compound 642]	> 1000
CCOc1cccc(C2NC(=O)NC3=C2C(=O)c2ccccc23)c1 (stereo not shown) [Compound 412]	100 to 500
CC(C)COc1cccc(C2NC(=NC#N)NC3=C2C(=O)c2ccccc23)c1 (stereo not shown) [Compound 959]	> 1000
CCCCOc1cccc(C2NC(=O)NC3=C2C(=O)c2ccccc23)c1 (stereo not shown) [Compound 408]	< 100
COc1cccc(C2NC(=O)NC3=C2C(=O)c2ccccc23)c1Cl (stereo not shown) [Compound 428]	> 1000
CCOc1cccc(C2NC(=O)N(CC(F)(F)F)C3=C2C(=O)c2ccccc23)c1 (stereo not shown) [Compound 605]	500 to 1000
O=C1NC2=C(C(=O)c3ccccc32)C(c2ccccc2O)N1 (stereo not shown) [Compound 435]	> 1000
C=CCOc1ccc(F)c(C2NC(=O)NC3=C2C(=O)c2ccccc23)c1 (stereo not shown) [Compound 417]	100 to 500
CN1C(=S)NC2=C(C(=O)c3ccccc32)C1c1ccccc1 (stereo not shown) [Compound 303]	> 1000
C=CCOc1cccc(C2NC(=NC#N)NC3=C2C(=O)c2ccccc23)c1 (stereo not shown) [Compound 950]	> 1000
CC(C)Oc1cccc(C2NC(=O)NC3=C2C(=O)c2ccccc23)c1 (stereo not shown) [Compound 437]	> 1000
C=CCOc1cccc(C2NC(=O)N(Cc3ccc(F)cc3)C3=C2C(=O)c2ccccc23)c1 (stereo not shown) [Compound 633]	< 100
N#CN=C1NC2=C(C(=O)c3ccccc32)C(c2cccc(C#N)c2)N1 (stereo not shown) [Compound 955]	> 1000
C=CCOc1cccc(C2NC(=O)NC3=C2C(=O)c2ccccc23)c1F (stereo not shown) [Compound 401]	< 100

Compound	IC50 [nM]
CCOc1cccc(C2NC(=O)NC3=C2C(=O)c2ccccc23)c1Cl (stereo not shown) [Compound 423]	500 to 1000
O=C1NC2=C(C(=O)c3ccccc32)C(c2cccc(O)c2)N1 (stereo not shown) [Compound 436]	> 1000
CN(C)c1cccc(C2NC(=O)NC3=C2C(=O)c2ccccc23)c1 (stereo not shown) [Compound 445]	> 1000
CCC[S+]([O-])c1cccc(C2NC(=O)NC3=C2C(=O)c2cccnc23)c1 (stereo not shown) [Compound 910]	> 1000
C=CCOc1cccc(C2NC(=O)N(CC(=O)OCC)C3=C2C(=O)c2ccccc23)c1 (stereo not shown) [Compound 631]	< 100
CN1C(=S)NC(c2ccccc2)C2=C1c1ccccc1C2=O (stereo not shown) [Compound 302]	< 100
CCCOc1ccc(F)c(C2NC(=O)NC3=C2C(=O)c2cccnc23)c1F (stereo not shown) [Compound 912]	< 100
COCCOc1cccc(C2NC(=O)NC3=C2C(=O)c2ccccc23)c1 (stereo not shown) [Compound 462]	100 to 500
COc1ccc(Cl)c(C2NC(=O)NC3=C2C(=O)c2ccccc23)c1 (stereo not shown) [Compound 429]	> 1000
COc1cc(OC)cc(C2NC(=O)NC3=C2C(=O)c2ccccc23)c1 (stereo not shown) [Compound 458]	> 1000
Nc1cccc(C2NC(=O)NC3=C2C(=O)c2ccccc23)c1 (stereo not shown) [Compound 444]	> 1000
C=CCOc1cccc(C2NC(=O)NC3=C2C(=O)c2ccccc23)c1O (stereo not shown) [Compound 456]	> 1000
CCOc1cccc(C2NC(=O)NC3=C2C(=O)c2ccccc23)c1 (stereo not shown) [Compound 602]	100 to 500
O=C1NC2=C(C(=O)c3ccccc32)C(c2cccnc2)N1 (stereo not shown) [Compound 501]	> 1000
C=CCOc1cccc(C2NC(=O)NC3=C2C(=O)c2ccccc23)c1C (stereo not shown) [Compound 421]	100 to 500
O=C1NC2=C(C(=O)c3c(O)cccc32)C(c2cc(O)ccc2Br)N1 (stereo not shown) [Compound 104]	> 1000
N#CN=C1NC2=C(C(=O)c3ccccc32)C(c2cccc(OCC3CC3)c2Cl)N1 (stereo not shown) [Compound 957]	> 1000
CCOc1cccc(C2NC(=O)N(C)C3=C2C(=O)c2ccccc23)c1 (stereo not shown) [Compound 603]	< 100
O=C1NC2=C(C(=O)c3ccccc32)C(c2cccc(OCC3CCC3)c2)N1 (stereo not shown) [Compound 461]	> 1000
COc1cccc(C2NC(=O)N(CCN(C)C)C3=C2C(=O)c2ccccc23)c1 (stereo not shown) [Compound 628]	> 1000
C=CCOc1cccc(C2NC(=O)NC3=C2C(=O)c2ccccc23)c1Cl (stereo not shown) [Compound 411]	< 100
CN1C(=NC#N)NC2=C(C(=O)c3c(Cl)cccc32)C1c1cccc(OCC2CC2)c1 (stereo not shown) [Compound 953]	> 1000

Compound	IC50 [nM]
CCOc1cccc(C2NC(=O)N(CC)C3=C2C(=O)c2ccccc23)c1 (stereo not shown) [Compound 604]	< 100
O=C1NC2=C(C(=O)c3ccccc32)C(c2cccs2)N1 (stereo not shown) [Compound 502]	> 1000
O=C1NC2=C(C(=O)c3ccccc32)C(c2ccc(Cl)cc2)N1 (stereo not shown) [Compound 442]	> 1000
COc1ccc(F)c(C2NC(=O)NC3=C2C(=O)c2ccccc23)c1 (stereo not shown) [Compound 432]	> 1000
CCCOc1cccc(C2NC(=O)N(CC)C3=C2C(=O)c2ccccc23)c1 (stereo not shown) [Compound 646]	< 100
O=C1NC2=C(C(=O)c3ccccc32)C(c2c(Cl)cccc2Cl)N1 (stereo not shown) [Compound 449]	> 1000
CCCS(=O)(=O)c1cccc(C2NC(=O)NC3=C2C(=O)c2cccnc23)c1 (stereo not shown) [Compound 911]	> 1000
CN1C(=S)NC(c2cccc(C#N)c2)C2=C1c1ccccc1C2=O (stereo not shown) [Compound 308]	< 100
O=C1NC2=C(C(=O)c3ccccc32)C(c2cc(C(F)(F)F)ccc2Cl)N1 (stereo not shown) [Compound 448]	> 1000
C=CCOc1cccc(C2NC(=O)N(Cc3ccccn3)C3=C2C(=O)c2ccccc23)c1 (stereo not shown) [Compound 636]	100 to 500
C=CCOc1cc(F)cc(C2NC(=O)NC3=C2C(=O)c2ccccc23)c1 (stereo not shown) [Compound 403]	< 100
C=CCOc1cccc(C2NC(=S)N(C)C3=C2C(=O)c2ccccc23)c1 (stereo not shown) [Compound 306]	< 100
C=CCOc1cccc(C2NC(=O)NC3=C2C(=O)c2ccccc23)c1C(F)(F)F (stereo not shown) [Compound 454]	> 1000
C=CCOc1cccc(C2NC(=O)N(C)C3=C2C(=O)c2ccccc23)c1Cl (stereo not shown) [Compound 639]	< 100
N#CN=C1NC2=C(C(=O)c3ccccc32)C(c2cccc(OCC3CCC3)c2)N1 (stereo not shown) [Compound 958]	> 1000
COCc1cccc(C2NC(=O)NC3=C2C(=O)c2ccccc23)c1 (stereo not shown) [Compound 453]	> 1000
C=CCOc1cc(Cl)cc(C2NC(=O)NC3=C2C(=O)c2ccccc23)c1 (stereo not shown) [Compound 406]	< 100
CCCOc1ccc(F)c(C2NC(=O)N(CC#N)C3=C2C(=O)c2ccccc23)c1F (stereo not shown) [Compound 648]	< 100
O=C1NC2=C(C(=O)c3ccccc32)C(c2ccccc2Cl)N1 (stereo not shown) [Compound 426]	500 to 1000
C=CCC(F)c1cccc(C2NC(=O)NC3=C2C(=O)c2ccccc23)c1 (stereo not shown) [Compound 402]	< 100
O=C1NC2=C(C(=O)c3ccccc32)C(c2cccc(OC(F)F)c2)N1 (stereo not shown) [Compound 414]	100 to 500
C=CCOc1cccc(C2NC(=S)NC3=C2C(=O)c2ccccc23)c1 (stereo not shown) [Compound 305]	< 100

Compound	IC50 [nM]
C=CC(F)(F)Oc1cccc(C2NC(=O)N(Cc3ccccc3)C3=C2C(=O)c2ccccc23)c1 (stereo not shown) [Compound 649]	> 1000
CCCC(F)c1cccc(C2NC(=O)NC3=C2C(=O)c2cccnc23)c1 (stereo not shown) [Compound 907]	< 100
CCCOc1cccc(C2NC(=O)N(Cc3ccccc3)C3=C2C(=O)c2ccccc23)c1 (stereo not shown) [Compound 647]	< 100
O=C1NC2=C(C(=O)c3ccccc32)C(c2cccc(OCC3CC3)c2)N1 (stereo not shown) [Compound 422]	100 to 500
CCN1C(=O)NC(c2cccc(OC)c2)C2=C1c1ccccc1C2=O (stereo not shown) [Compound 623]	100 to 500
O=C1NC2=C(C(=O)c3ccccc32)C(c2cccc3[nH]c(=O)oc23)N1 (stereo not shown) [Compound 505]	> 1000
CCCSc1cccc(C2NC(=O)NC3=C2C(=O)c2cccnc23)c1 (stereo not shown) [Compound 906]	100 to 500
O=C1NC2=C(C(=O)c3ccccc32)C(c2ccccc2F)N1 (stereo not shown) [Compound 447]	> 1000
C=CCOc1ccc(Cl)c(C2NC(=O)NC3=C2C(=O)c2ccccc23)c1 (stereo not shown) [Compound 637]	100 to 500
CN1C(=S)NC2=C(C(=O)c3ccccc32)C1c1cccc(C#N)c1 (stereo not shown) [Compound 309]	> 1000
C=CCOc1cccc(C2NC(=O)NC3=C2C(=O)c2ccccc23)c1 (stereo not shown) [Compound 405]	< 100
CN1C(=S)N(C)C(c2ccccc2)C2=C1c1ccccc1C2=O (stereo not shown) [Compound 304]	> 1000
CCOc1ccc(F)c(C2NC(=O)NC3=C2C(=O)c2ccccc23)c1F (stereo not shown) [Compound 420]	100 to 500
CCOc1cccc(C2NC(=O)N(Cc3ccc(F)cc3)C3=C2C(=O)c2ccccc23)c1 (stereo not shown) [Compound 607]	100 to 500
CCCN1C(=O)NC(c2cccc(OC)c2)C2=C1c1ccccc1C2=O (stereo not shown) [Compound 624]	> 1000
N#CN=C1NC2=C(C(=O)c3ccccc32)C(c2ccccc2)N1 (stereo not shown) [Compound 956]	> 1000
O=C1NC2=C(C(=O)c3ccccc32)C(c2ccc3c(c2)OCO3)N1 (stereo not shown) [Compound 457]	> 1000
CN1C(=O)NC(c2cccc(C#N)c2)C2=C1c1ccccc1C2=O (stereo not shown) [Compound 644]	> 1000
O=C1NC2=C(C(=O)c3c(Cl)cccc32)C(c2cc(O)ccc2Br)N1 (stereo not shown) [Compound 101]	< 100
